What was measured:
C57BL/6NCrS1c mice = assay: Tail suspension test of mice after nasal administration of SITH-1-expressing adenovirus; type: in vivo; conditions: 80 mg/L Fluoxetine solution as drinking water from 2 weeks before SITH-1/Adv; test 7 days after nasal administration
Procedure: 8-week-old C57BL/6NCrS1c mice were raised at a room temperature of 24±1° C. and with lights on for 12 hours and off for 12 hours. After each of the mice was anesthetized with use of isoflurane, SITH-1/Adv or empty/Adv in an amount equivalent to 2.5×10^7 ifu was dropped into the nasal cavity, and was then sucked by the mice along with breathing. Then, the mice were returned to raising cages.
7 days after the nasal administration of SITH-1/Adv or empty/Adv, a tail suspension test was carried out for 10 minutes. A period of immobility time was measured with use of TailSuspScanTopScan (CleverSys, Inc.). The tail suspension test was carried out by suspending each mouse by taping the tail 1 cm from the end. […] In the experiment, 30 mice were used in each group.
Statistical significance (* indicates P<0.05, ** indicates P<0.01, and *** indicates P<0.001) was calculated by use of the Mann-Whitney U-test.
Then, it was studied whether or not an SSRI (selective serotonin reuptake inhibitor), which is an antidepressant, would suppress an increase in immobility time, the increase being caused by the nasal administration of the SITH-1/Adv. 80 mg/L of Fluoxetine solution as drinking water was given to 6-week-old mice, and then the mice were raised for 2 weeks. Then, SITH-1/Adv was nasally administered. 7 days after the nasal administration, a tail suspension test was carried out for 10 minutes. […]

[1] = test system: HHV-6 variant B HST strain; assay: SITH-1 expression in HHV-6-infected U373 cells in the presence of ganciclovir (Real-time PCR); type: cell-based; conditions: U373 cultured overnight with drug, one day after infection, relative to ganciclovir(−)
Procedure: In the presence of ganciclovir, human glial cell lines (U373) were infected with HHV-6, and SITH-1 expression levels in the infected cells was detected by use of Real-time PCR.
The U373 cells were cultured overnight in the presence of ganciclovir at concentrations indicated in the graph. Thereafter, the U373 cells were infected with HHV-6 variant B HST strain, and after one day had passed after this infection, the SITH-1 expression levels in the cells were detected by use of Real-time PCR.
With regards to an effective concentration of ganciclovir against HHV-6 variant B, IC50 was presumed to be approximately 10 μM. As such, three concentration levels obtained by 3-fold dilution were used, with 10 μM being a median amount.
FIG. 25 illustrates suppression of SITH-1 expression by ganciclovir. The vertical axis of FIG. 25 represents SITH-1 mRNA expression level as a ratio, where 1 is the ratio for ganciclovir(−). […] When ganciclovir was used in an amount of 3 μM, 10 μM, and 30 μM, SITH-1 mRNA expression levels were reduced by approximately 20%, 40%, and 80% or more, respectively.

HHV-6 variant B = conditions: presumed value used to choose test concentrations; read-out: IC50 (effective concentration against HHV-6 variant B); cited from earlier work
HHV-6 HST strain = assay: Suppression of SITH-1 expression by heparin and anti-heparan sulfate peptide in HHV-6-infected U373 cells; type: cell-based; conditions: 10 unit/mL reacted with U373 cells at 4° C. for 1 hour before infection; MOI 3; 48 hours
Procedure: U373 astrocytoma cells were removed with use of trypsin-EDTA, and then a medium (10% FBS-containing DMEM) was added, so that the resultant cells were at 1×10^5 cell/mL. Then, the U373 cells were reacted with 10 unit/mL of Novo-Heparin (Mochida Pharmaceutical Co., Ltd.) or 0.1 mM of anti-3-OS Heparan sulfate (HS) peptide trifluoroacetate salt (Sigma-Aldrich) at 4° C. for 1 hour. The U373 cells were also reacted only with a medium as a control at 4° C. for 1 hour. The resultant cells were washed 3 times with a medium. Then, the U373 cells thus washed were infected with a HHV-6 HST strain virus fluid (2.9×10^6 ffu/ml) at a MOI of 3 by centrifugation. Then, the infected cells were cultured at 37° C. for 48 hours in a CO2 incubator.
From the resultant infected cells, RNA was purified by use of an RNeasy Mini Kit (Qiagen) in accordance with the standard protocol. Then, cDNA was synthesized by use of a PrimeScript RT Reagent Kit (Takara Bio). Finally, expression levels of SITH-1 and GAPDH mRNA were measured by a method similar to that used in the above (3.1).

HEK293 cells = assay: Effect of intracellular protein expression on intracellular calcium concentration (Fluo 4-AM fluorescence); type: cell-based; conditions: protein temporarily overexpressed in HEK293 cells, 24 hours after transfection; vs control vector (S-C protein: vs SITH-1-expressing cell)
Excerpt: In order to express SITH-1, the S-C protein, and the C-S protein intracellularly, pFLAG-CMV-5b (SIGMA-ALDRICH), which is an expression vector for mammals, was used to construct SITH-1/pFLAG-CMV-5b, SITH-CAML/pFLAG-CMV-5b, and CAML-SITH/pFLAG-CMV-5b. In each of the fusion proteins, the spacer (SEQ ID NO: 6) shown in FIG. 1 was inserted between SITH-1 and CAML. pFLAG-CMV-5b was used as a control. Each vector was transfected into HEK293 cells by use of a CalPhos (trademark) Mammalian Transfection Kit (Takara Bio), such that each protein was temporarily overexpressed intracellularly.
A Calcium Kit II-Fluo 4 (Dojindo) was used to cause cells to take up Fluo 4-AM, 24 hours after transfection. Thereafter, an ArrayScan XTI System (ThermoFisher Scientific) was used to measure fluorescence intensities (λex=485 nm, λem=518) in cells expressing the various proteins (700 to 1300 cells per protein type).
FIG. 26 indicates the effects of SITH-1 expression, S-C protein expression, and C-S protein expression on intracellular calcium concentration. Median, maximum, and minimum values are indicated as a box-and-whisker plot. Statistical significance (′ indicates P<0.01) was determined via a multiple comparison test using Scheffe's method.

CNCCC(Oc1ccc(C(F)(F)F)cc1)c1ccccc1 (stereo not shown) [Fluoxetine]
immobility time increases in SITH-1/Adv nasal administration mice (tail suspension test) (C57BL/6NCrS1c mice): suppressed

Nc1nc(O)c2ncn(COC(CO)CO)c2n1 [ganciclovir]
SITH-1 mRNA expression level reduced by ([1]; ganciclovir 3 μM): approximately 20% | SITH-1 mRNA expression level reduced by ([1]; ganciclovir 10 μM): ~40% | SITH-1 mRNA expression level reduced by ([1]; ganciclovir 30 μM): ≥ 80% | IC50 (HHV-6 variant B): ~10 µM

heparin
SITH-1 expression in U373 cells (HHV-6 HST strain): suppressed

B1: SITH-1: HHV-6 latent infection protein, 159 amino acids, SEQ ID NO: 1 (protein)
chain: MGYEEKVSATGKTRLKILACLIVLILAAAITMLTLEIISNQKRTTTDLEAVTVALKHVSTSLASCTESTTSVHTDSVTSQPTKNKESRKKIEGKSPSWVQALTTASGIILLFCIMMIFITCSWTTEKDTEKSEVQSYASSVETLDSLNEAIIPKTEMNV
modifications: Human herpesvirus 6
intracellular calcium concentration (HEK293 cells): increased

— patent US10539578B2, “Method for diagnosing, treating, or preventing mood disorders” (JAPAN TOBACCO INC., priority 2015, dated 2020)
